{"source": "ChEMBL document CHEMBL5500370", "about": "“Discovery of potent and novel dual NAMPT/BRD4 inhibitors for efficient treatment of hepatocellular carcinoma” (Eur J Med Chem, 2024)", "key": {"[1]": {"system": "Hep 3B2", "test": "Induction of cell cycle arrest at G0/G1 phase in human Hep3B cells at 10 uM measured after 72 hrs by PI/RNase staining based flow cytometry (reference value: 56.73 %)", "format": "functional"}, "[2]": {"system": "Hep 3B2", "test": "Induction of apoptosis in human Hep3B cells assessed as early apoptotic cells at 1 uM measured after 72 hrs by Annexin V-FITC/PI staining based flow cytometry (reference value: 2.13 %)", "format": "functional"}, "[3]": {"system": "Huh-7", "test": "cells", "settings": "Homo sapiens, Huh-7, 120 h"}, "[4]": {"system": "HCCLM3", "test": "cells", "settings": "Homo sapiens, HCCLM3, 120 h"}, "[5]": {"system": "Hep 3B2", "test": "Induction of cell cycle arrest at G2/M phase in human Hep3B cells at 10 uM measured after 72 hrs by PI/RNase staining based flow cytometry (reference value: 11.37 %)", "format": "functional"}, "[6]": {"molecular_target": "T1, Bromodomain-containing protein 4 (Homo sapiens, UniProt O60885)", "test": "Inhibition of BRD4 BD1/2 (unknown origin) incubated for 120 mins by TR-FRET assay"}, "[7]": {"system": "HCCLM3", "test": "Antiproliferative activity against NAMN-treated human HCCLM3 cells incubated for 120 hrs by MTT assay", "format": "functional, cell-based"}, "[8]": {"system": "HCCLM3", "test": "Antitumor activity against human HCCLM3 cells xenografted in BALB/c nude mouse assessed as tumor growth suppression administered intraperitoneally for 27 days", "format": "functional", "settings": "dose 40-80 mg/kg, route ip, time 27.0 day"}, "[9]": {"system": "Hep 3B2", "test": "Downregulation of NAPRT level in human Hep3B cells at 1 to 10 uM measured after 72 hrs by immunoblot analysis", "format": "functional, cell-based", "settings": "dose 1-10 µM"}, "[10]": {"molecular_target": "T1, Bromodomain-containing protein 4", "test": "Inhibition of BRD4 BD2 (unknown origin) incubated for 120 mins by TR-FRET assay"}, "[11]": {"molecular_target": "T1, Bromodomain-containing protein 4", "test": "Inhibition of BRD4 in human Hep3B cells assessed as decrease in YAP1 level at 1 to 10 uM measured after 72 hrs by immunoblot analysis", "format": "cell-based", "settings": "dose 1-10 µM"}, "[12]": {"system": "Hep 3B2", "test": "Induction of cell cycle arrest at S phase in human Hep3B cells at 5 uM measured after 72 hrs by PI/RNase staining based flow cytometry (reference value: 31.90 %)", "format": "functional"}, "[13]": {"system": "Hep 3B2", "test": "Induction of apoptosis in human Hep3B cells assessed as necrotic cells at 5 uM measured after 72 hrs by Annexin V-FITC/PI staining based flow cytometry (reference value: 2.74 %)", "format": "functional"}, "[14]": {"molecular_target": "Bromodomain-containing protein 3 (Homo sapiens, UniProt Q15059)", "sequence (Q15059 whole entry)": "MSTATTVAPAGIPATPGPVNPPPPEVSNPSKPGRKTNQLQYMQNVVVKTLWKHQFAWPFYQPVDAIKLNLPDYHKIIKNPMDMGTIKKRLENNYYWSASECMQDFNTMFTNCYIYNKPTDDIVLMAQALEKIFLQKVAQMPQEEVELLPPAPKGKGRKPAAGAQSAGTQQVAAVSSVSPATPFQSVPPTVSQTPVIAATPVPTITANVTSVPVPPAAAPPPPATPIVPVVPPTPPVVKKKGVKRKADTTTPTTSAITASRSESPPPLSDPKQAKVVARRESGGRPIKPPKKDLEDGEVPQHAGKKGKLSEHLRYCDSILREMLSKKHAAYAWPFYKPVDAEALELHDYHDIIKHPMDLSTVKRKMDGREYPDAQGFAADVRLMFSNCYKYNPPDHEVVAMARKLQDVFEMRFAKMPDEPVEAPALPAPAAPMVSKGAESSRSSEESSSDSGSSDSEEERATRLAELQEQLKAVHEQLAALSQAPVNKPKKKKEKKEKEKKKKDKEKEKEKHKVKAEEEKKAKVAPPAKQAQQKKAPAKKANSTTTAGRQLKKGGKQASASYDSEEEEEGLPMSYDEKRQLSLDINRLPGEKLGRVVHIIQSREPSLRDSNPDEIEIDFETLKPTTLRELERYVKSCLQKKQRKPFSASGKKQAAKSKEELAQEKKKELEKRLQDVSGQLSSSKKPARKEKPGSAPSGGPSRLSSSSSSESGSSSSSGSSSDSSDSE", "test": "Inhibition of BRD3 BD1/2 (unknown origin) incubated for 120 mins by TR-FRET assay"}, "[15]": {"molecular_target": "T1, Bromodomain-containing protein 4", "test": "Inhibition of BRD4 in human Hep3B cells assessed as decrease in c-Myc level at 1 to 10 uM measured after 72 hrs by immunoblot analysis", "format": "cell-based", "settings": "dose 1-10 µM"}, "[16]": {"system": "Hep 3B2", "test": "Induction of apoptosis in human Hep3B cells assessed as viable cells at 10 uM measured after 72 hrs by Annexin V-FITC/PI staining based flow cytometry (reference value: 94.08 %)", "format": "functional", "settings": "Homo sapiens, Hep3B, read-out: Activity"}, "[17]": {"system": "Hep 3B2", "test": "Antimigratory activity in human Hep3B cells measured upto 24 hrs by wound healing assay", "format": "functional, cell-based", "settings": "dose 1-10 µM"}, "[18]": {"molecular_target": "T1, Bromodomain-containing protein 4", "test": "Inhibition of BRD4 BD1 (unknown origin) incubated for 120 mins by TR-FRET assay"}, "[19]": {"molecular_target": "T2, Nicotinamide phosphoribosyltransferase (Homo sapiens, UniProt P43490)", "T2 sequence (P43490 whole entry, looked up)": "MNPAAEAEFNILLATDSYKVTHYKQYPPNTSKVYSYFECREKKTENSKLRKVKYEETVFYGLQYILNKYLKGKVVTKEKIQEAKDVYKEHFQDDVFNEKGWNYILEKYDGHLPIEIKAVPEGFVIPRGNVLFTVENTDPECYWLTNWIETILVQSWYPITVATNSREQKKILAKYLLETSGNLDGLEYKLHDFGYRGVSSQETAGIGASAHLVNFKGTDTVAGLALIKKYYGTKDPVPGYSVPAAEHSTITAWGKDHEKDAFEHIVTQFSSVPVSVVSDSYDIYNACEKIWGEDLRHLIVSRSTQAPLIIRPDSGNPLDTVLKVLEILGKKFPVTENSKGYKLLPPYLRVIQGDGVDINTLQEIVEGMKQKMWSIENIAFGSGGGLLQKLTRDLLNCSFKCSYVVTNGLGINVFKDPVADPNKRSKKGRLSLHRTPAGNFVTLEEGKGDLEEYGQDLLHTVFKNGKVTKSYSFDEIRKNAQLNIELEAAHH", "test": "Inhibition of NAMPT in human HCCLM3 cells assessed as decrease in NAD+ level at 10 uM measured after 72 hrs by WST-8 assay", "format": "cell-based"}, "[20]": {"system": "Hep 3B2", "test": "Induction of cell cycle arrest at S phase in human Hep3B cells at 1 uM measured after 72 hrs by PI/RNase staining based flow cytometry (reference value: 31.90 %)", "format": "functional"}, "[21]": {"system": "Hep 3B2", "test": "Induction of cell cycle arrest at G0/G1 phase in human Hep3B cells at 1 uM measured after 72 hrs by PI/RNase staining based flow cytometry (reference value: 56.73 %)", "format": "functional"}, "[22]": {"system": "Hep 3B2", "test": "Induction of apoptosis in human Hep3B cells assessed as necrotic cells at 10 uM measured after 72 hrs by Annexin V-FITC/PI staining based flow cytometry (reference value: 2.74 %)", "format": "functional"}, "[23]": {"system": "HCCLM3", "test": "Antiproliferative activity against NMN/NAMN-treated human HCCLM3 cells incubated for 120 hrs by MTT assay", "format": "functional, cell-based"}, "[24]": {"system": "Hep 3B2", "test": "Induction of apoptosis in human Hep3B cells assessed as late apoptotic cells at 1 uM measured after 72 hrs by Annexin V-FITC/PI staining based flow cytometry (reference value: 1.05 %)", "format": "functional"}, "[25]": {"system": "Hep 3B2", "test": "Downregulation of NAMPT level in human Hep3B cells at 1 to 10 uM measured after 72 hrs by immunoblot analysis", "format": "functional, cell-based", "settings": "dose 1-10 µM"}, "[26]": {"molecular_target": "Bromodomain-containing protein 2 (Homo sapiens, UniProt P25440)", "sequence (P25440 whole entry)": "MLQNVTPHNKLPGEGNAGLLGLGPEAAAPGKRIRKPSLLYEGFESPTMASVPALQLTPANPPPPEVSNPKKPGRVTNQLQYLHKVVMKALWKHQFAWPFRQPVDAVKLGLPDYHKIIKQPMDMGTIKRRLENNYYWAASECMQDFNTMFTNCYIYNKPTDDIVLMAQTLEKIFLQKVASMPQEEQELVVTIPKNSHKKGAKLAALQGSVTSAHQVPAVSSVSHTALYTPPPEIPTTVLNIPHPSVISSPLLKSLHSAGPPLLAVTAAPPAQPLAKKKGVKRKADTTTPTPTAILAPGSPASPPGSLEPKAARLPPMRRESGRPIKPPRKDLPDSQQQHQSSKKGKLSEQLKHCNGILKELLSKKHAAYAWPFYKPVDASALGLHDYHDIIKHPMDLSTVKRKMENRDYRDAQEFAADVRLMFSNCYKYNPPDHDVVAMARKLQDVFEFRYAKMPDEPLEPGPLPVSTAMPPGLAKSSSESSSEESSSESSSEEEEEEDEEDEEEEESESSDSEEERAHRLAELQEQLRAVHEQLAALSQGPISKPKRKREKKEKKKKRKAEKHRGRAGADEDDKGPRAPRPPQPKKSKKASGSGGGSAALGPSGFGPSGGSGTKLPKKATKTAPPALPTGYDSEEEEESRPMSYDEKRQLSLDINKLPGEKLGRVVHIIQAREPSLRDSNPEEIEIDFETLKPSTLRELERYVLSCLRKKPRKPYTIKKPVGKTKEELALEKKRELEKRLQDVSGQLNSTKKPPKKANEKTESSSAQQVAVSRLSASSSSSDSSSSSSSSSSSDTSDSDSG", "test": "Inhibition of BRD2 BD1/2 (unknown origin) incubated for 120 mins by TR-FRET assay"}, "[27]": {"system": "HCCLM3", "test": "Antitumor activity against human HCCLM3 cells xenografted in BALB/c nude mouse at 40 mg/kg, ip for 27 days relative to control", "format": "functional", "settings": "HCCLM3, 648 h, time 27 day, read-out: TGI"}, "[28]": {"system": "Hep 3B2", "test": "Induction of apoptosis in human Hep3B cells assessed as necrotic cells at 1 uM measured after 72 hrs by Annexin V-FITC/PI staining based flow cytometry (reference value: 2.74 %)", "format": "functional"}, "[29]": {"system": "Hep 3B2", "test": "Induction of cell cycle arrest at G2/M phase in human Hep3B cells at 1 uM measured after 72 hrs by PI/RNase staining based flow cytometry (reference value: 11.37 %)", "format": "functional"}, "[30]": {"test": "Antiproliferative activity against human LX2 cells incubated for 120 hrs by MTT assay", "format": "toxicity, cell-based", "settings": "LX-2 cells"}, "[31]": {"system": "Hep 3B2", "test": "Induction of apoptosis in human Hep3B cells assessed as late apoptotic cells at 5 uM measured after 72 hrs by Annexin V-FITC/PI staining based flow cytometry (reference value: 1.05 %)", "format": "functional"}, "[32]": {"test": "Toxicity in BALB/c nude mouse xenografted with human HCCLM3 cells assessed as body weight loss at 40 to 80 mg/kg, ip for 27 days", "format": "organism-based", "settings": "in vivo, 648 h, dose 40-80 mg/kg, time 27 day"}, "[33]": {"molecular_target": "T2, Nicotinamide phosphoribosyltransferase", "test": "Inhibition of NAMPT in human Hep3B cells assessed as decrease in NAD+ level at 10 uM measured after 72 hrs by WST-8 assay", "format": "cell-based"}, "[34]": {"system": "Hep 3B2", "test": "Induction of cell cycle arrest at S phase in human Hep3B cells at 10 uM measured after 72 hrs by PI/RNase staining based flow cytometry (reference value: 31.90 %)", "format": "functional"}, "[35]": {"system": "Hep 3B2", "test": "Antiproliferative activity against NAMN-treated human Hep3B cells incubated for 120 hrs by MTT assay", "format": "functional, cell-based"}, "[36]": {"system": "Hep 3B2", "test": "Induction of apoptosis in human Hep3B cells assessed as viable cells at 1 uM measured after 72 hrs by Annexin V-FITC/PI staining based flow cytometry (reference value: 94.08 %)", "format": "functional", "settings": "read-out: Activity"}, "[37]": {"system": "Hep 3B2", "test": "Induction of apoptosis in human Hep3B cells assessed as late apoptotic cells at 10 uM measured after 72 hrs by Annexin V-FITC/PI staining based flow cytometry (reference value: 1.05 %)", "format": "functional"}, "[38]": {"system": "Hep 3B2", "test": "Induction of apoptosis in human Hep3B cells assessed as viable cells at 5 uM measured after 72 hrs by Annexin V-FITC/PI staining based flow cytometry (reference value: 94.08 %)", "format": "functional", "settings": "read-out: Activity"}}, "note": "Activity calls are given as the source filed them. No cut-off for these calls is given here.", "data": [{"smiles": "Cc1sc2c(c1C)C(c1ccc(Cl)cc1)=N[C@@H](CC(=O)NCCCNC(=O)/C=C/c1cccnc1)c1nnc(C)n1-2", "values": [{"measurement": "Activity", "setting": "[1]", "result": 76.25, "unit": "%"}, {"measurement": "Activity", "setting": "[2]", "result": 8.83, "unit": "%"}, {"measurement": "IC50", "setting": "[3]", "result": 6490, "unit": "nM"}, {"measurement": "IC50", "setting": "[4]", "result": 5440, "unit": "nM"}, {"measurement": "Activity", "setting": "[5]", "result": 5.54, "unit": "%"}, {"measurement": "IC50", "setting": "[6]", "result": 58, "unit": "nM"}, {"measurement": "Activity", "setting": "[7]", "result": "inactive"}, {"measurement": "Activity", "setting": "[8]", "result": "Dose-Dependent Effect"}, {"measurement": "Activity", "setting": "[9]", "result": "Active"}, {"measurement": "IC50", "setting": "[10]", "result": 41, "unit": "nM"}, {"measurement": "inhibition", "setting": "[11]", "result": "Active"}, {"measurement": "Activity", "setting": "[12]", "result": 20.57, "unit": "%"}, {"measurement": "Activity", "setting": "[13]", "result": 4.6, "unit": "%"}, {"measurement": "IC50", "setting": "[14]", "result": 122, "unit": "nM"}, {"measurement": "inhibition", "setting": "[15]", "result": "Active"}, {"measurement": "viability at 10 µM", "setting": "[16]", "result": 72.1, "unit": "%"}, {"measurement": "Activity", "setting": "[17]", "result": "Dose-Dependent Effect"}, {"measurement": "IC50", "setting": "[18]", "result": 12, "unit": "nM"}, {"measurement": "inhibition", "setting": "[19]", "result": "Active"}, {"measurement": "Activity", "setting": "[20]", "result": 24.18, "unit": "%"}, {"measurement": "Activity", "setting": "[21]", "result": 66.06, "unit": "%"}, {"measurement": "Activity", "setting": "[22]", "result": 2.43, "unit": "%"}, {"measurement": "Activity", "setting": "[23]", "result": "inactive"}, {"measurement": "Activity", "setting": "[24]", "result": 4.58, "unit": "%"}, {"measurement": "Activity", "setting": "[25]", "result": "Active"}, {"measurement": "IC50", "setting": "[26]", "result": 489, "unit": "nM"}, {"measurement": "inhibition in vivo at 40 mg/kg", "setting": "[27]", "result": 37.2, "unit": "%"}, {"measurement": "Activity", "setting": "[28]", "result": 2.69, "unit": "%"}, {"measurement": "Activity", "setting": "[29]", "result": 9.76, "unit": "%"}, {"measurement": "IC50 at 120 h", "setting": "[30]", "result": 9510, "unit": "nM"}, {"measurement": "Activity", "setting": "[31]", "result": 6.24, "unit": "%"}, {"measurement": "Activity", "setting": "[32]", "result": "Non-Toxic"}, {"measurement": "inhibition", "setting": "[33]", "result": "Active"}, {"measurement": "Activity", "setting": "[34]", "result": 18.21, "unit": "%"}, {"measurement": "Activity", "setting": "[35]", "result": "inactive"}, {"measurement": "viability at 1 µM", "setting": "[36]", "result": 83.9, "unit": "%"}, {"measurement": "Activity", "setting": "[37]", "result": 6.56, "unit": "%"}, {"measurement": "viability at 5 µM", "setting": "[38]", "result": 74.7, "unit": "%"}]}]}
